Assay results: patent publication US20050148991A1, “Device for using patient blood as diluent in administering pharmaceuticals” (priority 2002, published 2005)

Assay: early study in humans receiving RSR13 via injection in a peripheral vein
Assay type: in vivo
Source text: Therefore, the use of RSR13 and its physiologically acceptable salts in the present methods is contemplated. The preparation and uses for 2-[4-[2-[(3,5-dimethylphenyl)amino]-2-oxoethyl]phenoxy]-2-methyl-propionic acid and its physiologically acceptable salts has been described previously in U.S. Pat. Nos. 5,049,695; 5,122,539; 5,290,803; 5,432,191; 5,525,630; 5,648,375; 5,661,182; 5,677,330; 5,705,521; 5,872,888; and 5,927,283, and pending U.S. patent application Ser. No. 10/082,130, filed Feb. 25, 2002.

Cc1cc(C)cc(NC(=O)Cc2ccc(OC(C)(C)C(=O)O)cc2)c1 [RSR13, 2-[4-[2-[(3,5-dimethylphenyl)amino]-2-oxoethyl]phenoxy]-2-methyl-propionic acid]
pain on injection: some recipients complained of pain near the site of injection and downstream
